Results from ChEMBL document CHEMBL1201862, “PubChem BioAssay data set” (2004).
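Following 48 hours of exposure in 96-well plates, responses at five concentrations were used to interpolate endpoints linearly. Abbreviation: GI50, concentration required for 50% inhibition of growth.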 The source made the active and inactive calls. Rule as the data show it: active = GI50 up to about 1.1 µM and inactive = higher. Bridge positions count the residues as written; N and C are the ends. Square brackets hold non-standard residues; d marks the D form. Peptide text beside a SMILES is read from it. * marks the point of attachment. Cya = N[CH](CS(=O)(=O)O)C(=O)O; X49 = CC(C)CCCCCCCC(O)CC(=O)*; GABA = NCCCC(=O)O

Experiments:
Experiment in all cases: DTP human tumour cell line panel, 48 h
SNB-75 = test system: SNB-75
DU-145 = test system: DU-145
MDA-N = test system: MDA-N
HOP-92 = test system: HOP-92
BT-549 = test system: BT-549
UO-31 = test system: UO-31
HOP-62 = test system: HOP-62
COLO 205 = test system: COLO 205
TK-10 = test system: TK-10
Hs-578T = test system: Hs-578T
KM12 = test system: KM12
OVCAR-4 = test system: OVCAR-4
M14 = test system: M14
CAKI-1 = test system: CAKI-1
OVCAR-3 = test system: OVCAR-3
SF-539 = test system: SF-539
SK-MEL-28 = test system: SK-MEL-28
MDA-MB-231 = test system: MDA-MB-231
SF-268 = test system: SF-268

SMILES	GI50 (SNB-75)	GI50 (DU-145)	GI50 (MDA-N)	GI50 (HOP-92)	GI50 (BT-549)	GI50 (UO-31)	GI50 (HOP-62)	GI50 (COLO 205)	GI50 (TK-10)	GI50 (Hs-578T)	GI50 (KM12)	GI50 (OVCAR-4)	GI50 (M14)	GI50 (CAKI-1)	GI50 (OVCAR-3)	GI50 (SF-539)	GI50 (SK-MEL-28)	GI50 (MDA-MB-231)	GI50 (SF-268)
Cc1nc(O)nc(NNCc2ccc(Cl)cc2)c1C(=O)Nc1ccc(Cl)cc1	> 100 µM (inactive)	29.4 µM (inactive)	81.1 µM (inactive)	> 100 µM (inactive)	> 100 µM (inactive)	> 100 µM (inactive)	> 100 µM (inactive)	> 100 µM (inactive)	> 100 µM (inactive)	> 100 µM (inactive)	> 100 µM (inactive)	> 100 µM (inactive)	> 100 µM (inactive)	> 100 µM (inactive)	> 100 µM (inactive)	> 100 µM (inactive)	> 100 µM (inactive)	> 100 µM (inactive)	
CCC(C#N)N(Cc1ccc(CN(C(=O)c2ccccc2)C(C#N)CC)cc1)C(=O)c1ccccc1 (configuration not stated)	22.3 µM (inactive)	28.6 µM (inactive)	32.4 µM (inactive)	13.2 µM (inactive)	27.5 µM (inactive)	19.7 µM (inactive)	20.9 µM (inactive)	14.7 µM (inactive)	12.9 µM (inactive)	21.5 µM (inactive)	21.7 µM (inactive)	17.4 µM (inactive)	36.6 µM (inactive)	24.3 µM (inactive)	16.7 µM (inactive)	18.6 µM (inactive)		23.7 µM (inactive)	29.4 µM (inactive)
COC(=O)[C@H]1COC(=O)N1	> 100 µM (inactive)	> 100 µM (inactive)	> 100 µM (inactive)	> 100 µM (inactive)	> 100 µM (inactive)	> 100 µM (inactive)	> 100 µM (inactive)	> 100 µM (inactive)	> 100 µM (inactive)	> 100 µM (inactive)	> 100 µM (inactive)	> 100 µM (inactive)	> 100 µM (inactive)	> 100 µM (inactive)	> 100 µM (inactive)	> 100 µM (inactive)	> 100 µM (inactive)	> 100 µM (inactive)	> 100 µM (inactive)
O=c1c(C(c2cnc3ccccc3c2)c2c(O)oc3ccccc3c2=O)c(O)oc2ccccc12	13.5 µM (inactive)	> 100 µM (inactive)	21.4 µM (inactive)	20.2 µM (inactive)	20.7 µM (inactive)	29.4 µM (inactive)	46.5 µM (inactive)	60.7 µM (inactive)	49.4 µM (inactive)	22.4 µM (inactive)	37.4 µM (inactive)	33.7 µM (inactive)		41.3 µM (inactive)	91.8 µM (inactive)		25.9 µM (inactive)	92.7 µM (inactive)	23.8 µM (inactive)
CC(Br)C(=O)c1ccc2cc(Br)c3ccccc3c2c1 (configuration not stated)	15.2 µM (inactive)	16.5 µM (inactive)	12.9 µM (inactive)	16.4 µM (inactive)	15.1 µM (inactive)	17.6 µM (inactive)	17.2 µM (inactive)		19 µM (inactive)	23.1 µM (inactive)	17.2 µM (inactive)	16.7 µM (inactive)	16.1 µM (inactive)	16.1 µM (inactive)	12.1 µM (inactive)		18.6 µM (inactive)	16.3 µM (inactive)	16.3 µM (inactive)
C=CCC(CNC(=O)OCc1ccccc1)O[Si](C)(C)C(C)(C)C (configuration not stated)	59.3 µM (inactive)	36.5 µM (inactive)	34.8 µM (inactive)	26.2 µM (inactive)	55 µM (inactive)	22.2 µM (inactive)	38.5 µM (inactive)	16.6 µM (inactive)	74.5 µM (inactive)	45.2 µM (inactive)	34 µM (inactive)	46.7 µM (inactive)	26.4 µM (inactive)	29.4 µM (inactive)	31.6 µM (inactive)	28.5 µM (inactive)	48 µM (inactive)	17.3 µM (inactive)	45.3 µM (inactive)
O=C1CCCC2=C1CC1=C(CCCC1=O)N2c1ccc(-c2ccccc2)cc1	> 47.4 µM (inactive)	> 100 µM (inactive)	> 100 µM (inactive)	> 75.3 µM (inactive)	> 40 µM (inactive)	> 100 µM (inactive)	> 100 µM (inactive)	> 100 µM (inactive)	> 75 µM (inactive)	43.2 µM (inactive)	> 100 µM (inactive)	> 100 µM (inactive)	> 100 µM (inactive)	> 100 µM (inactive)	> 100 µM (inactive)	> 72.6 µM (inactive)	> 100 µM (inactive)	> 100 µM (inactive)	> 63.5 µM (inactive)
COC(=O)C1=C(O)C(C(=O)OC)[C@]2(O)[C@H](C(=O)OC)[C@H]1C[C@@H](c1ccc(Cl)cc1)[C@H]2C(=O)OC (some centres not stated)	13.6 µM (inactive)	7.11 µM (inactive)	3.78 µM (inactive)	19.3 µM (inactive)	6.12 µM (inactive)	8.97 µM (inactive)	7.67 µM (inactive)	10 µM (inactive)	13 µM (inactive)	3.89 µM (inactive)	11.5 µM (inactive)	11.1 µM (inactive)	4.72 µM (inactive)	7.73 µM (inactive)	2.94 µM (inactive)	4.22 µM (inactive)	9.06 µM (inactive)	16.5 µM (inactive)	6.79 µM (inactive)
CC(C)CCCCCCCC(O)CC(=O)NC(CS(=O)(=O)O)C(=O)NC(CC(C)C)C(=O)NCCCC(=O)NC(Cc1c[nH]cn1)C(=O)NC(C)C(=O)NC1C(=O)NC(C(C)O)C(=O)NC(Cc2c[nH]cn2)C(=O)NC(C)C(=O)NC(C(C)O)C(=O)OC1C (configuration not stated) (X49-[Cya]L[GABA]HATTHAT; ester 6-C; configuration not given here)	> 25 µM (inactive)	> 25 µM (inactive)	> 25 µM (inactive)	> 25 µM (inactive)	> 25 µM (inactive)	> 25 µM (inactive)	> 25 µM (inactive)	> 25 µM (inactive)	> 25 µM (inactive)	> 25 µM (inactive)	> 25 µM (inactive)	> 25 µM (inactive)	> 25 µM (inactive)	> 25 µM (inactive)	> 25 µM (inactive)	> 25 µM (inactive)	> 25 µM (inactive)	> 25 µM (inactive)	
COc1ccc(N2CCN(c3ccc4c(c3)NCC(=O)N4)CC2)cc1	26.9 µM (inactive)	> 100 µM (inactive)	> 100 µM (inactive)	23.5 µM (inactive)	34 µM (inactive)	26.9 µM (inactive)	> 100 µM (inactive)	43 µM (inactive)	41.8 µM (inactive)	25.3 µM (inactive)	21.3 µM (inactive)	32.1 µM (inactive)	52.5 µM (inactive)	64.4 µM (inactive)	28.8 µM (inactive)	23.6 µM (inactive)	> 100 µM (inactive)	34.4 µM (inactive)	74.1 µM (inactive)
C[C@]12CCC(=O)C=C1CC[C@@H]1C2CC[C@]2(C)Nc3c(ncn3-c3ccc(F)cc3)CC12 (some centres not stated)	17.5 µM (inactive)	23.7 µM (inactive)	11.8 µM (inactive)	33.2 µM (inactive)	20.3 µM (inactive)	27 µM (inactive)	37.8 µM (inactive)	15.7 µM (inactive)	27.7 µM (inactive)	16.3 µM (inactive)	17.2 µM (inactive)	28.2 µM (inactive)	23.8 µM (inactive)	46.2 µM (inactive)	29.2 µM (inactive)	11.7 µM (inactive)	29.3 µM (inactive)	42.5 µM (inactive)	19.1 µM (inactive)
CCOC(=O)C1c2[nH]c3ccccc3c2CCN1C(=O)c1ccco1 (configuration not stated)	> 10 µM (inactive)	> 10 µM (inactive)	> 10 µM (inactive)	> 10 µM (inactive)	> 10 µM (inactive)		> 10 µM (inactive)	> 10 µM (inactive)	> 10 µM (inactive)	> 10 µM (inactive)	> 10 µM (inactive)	> 10 µM (inactive)	> 10 µM (inactive)	> 10 µM (inactive)	> 10 µM (inactive)	> 10 µM (inactive)	> 10 µM (inactive)	> 10 µM (inactive)	> 10 µM (inactive)
CCN1/C(=C/C#C/C(C)=C\c2sc3ccccc3[n+]2CC)Sc2ccccc21	1.53 µM (inactive)	3.42 µM (inactive)	2.9 µM (inactive)	2 µM (inactive)	0.558 µM (active)	2.03 µM (inactive)	5.37 µM (inactive)	1.27 µM (inactive)	3.24 µM (inactive)	2.98 µM (inactive)	1.28 µM (inactive)	7.33 µM (inactive)	1.93 µM (inactive)	2.39 µM (inactive)		2.9 µM (inactive)	3.35 µM (inactive)	4.42 µM (inactive)	2.86 µM (inactive)
Nc1nc(Cl)cc(Nc2cc(Cl)cc(Cl)c2)n1	21.7 µM (inactive)	26.1 µM (inactive)	23 µM (inactive)	21.5 µM (inactive)	22.1 µM (inactive)	19.6 µM (inactive)	29.2 µM (inactive)	22.4 µM (inactive)	20.4 µM (inactive)	16.8 µM (inactive)	20.9 µM (inactive)	21.7 µM (inactive)	19.3 µM (inactive)	23.4 µM (inactive)	22.8 µM (inactive)	17 µM (inactive)		20 µM (inactive)	20.8 µM (inactive)
O=c1[nH]c(=O)c2c([nH]1)[nH]c1ccc(Br)cc12	74.5 µM (inactive)	> 100 µM (inactive)	> 100 µM (inactive)	62.5 µM (inactive)	> 100 µM (inactive)	56.9 µM (inactive)	> 100 µM (inactive)	> 100 µM (inactive)	> 100 µM (inactive)	45.3 µM (inactive)	21.8 µM (inactive)		> 100 µM (inactive)	> 100 µM (inactive)		> 100 µM (inactive)		93.5 µM (inactive)	97.1 µM (inactive)
